Measured values taken from ChEMBL document CHEMBL5729731, “Imidazole-containing inhibitors of ALK2 kinase” (2023).

Target: T1, Activin receptor type-1 (Homo sapiens, UniProt Q04771)
T1 sequence (Q04771 whole entry): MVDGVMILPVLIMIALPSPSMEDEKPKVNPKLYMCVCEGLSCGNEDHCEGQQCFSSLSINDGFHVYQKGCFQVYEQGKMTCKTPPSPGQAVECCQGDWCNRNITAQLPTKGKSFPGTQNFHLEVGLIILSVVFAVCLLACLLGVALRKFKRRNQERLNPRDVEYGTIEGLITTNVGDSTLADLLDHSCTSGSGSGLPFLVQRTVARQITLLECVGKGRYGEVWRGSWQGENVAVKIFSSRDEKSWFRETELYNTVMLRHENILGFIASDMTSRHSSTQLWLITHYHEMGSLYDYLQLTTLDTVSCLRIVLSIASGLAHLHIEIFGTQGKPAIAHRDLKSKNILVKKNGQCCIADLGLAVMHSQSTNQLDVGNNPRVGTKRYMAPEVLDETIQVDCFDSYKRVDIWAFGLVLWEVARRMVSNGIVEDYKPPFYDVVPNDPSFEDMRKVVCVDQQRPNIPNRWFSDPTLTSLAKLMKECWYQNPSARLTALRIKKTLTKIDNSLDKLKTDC
Assay: Biochemical assay: Biochemical assays to measure the inhibitory effects of the compounds were performed by ThermoFisher Scientific (Life Technologies). ALK2 inhibition was tested using LanthaScreen Eu Kinase Binding Assay screening protocol.

- IC50: < 100 nM
SMILES: COc1cc(-n2cnc(Nc3nc(-c4cccc(CO)c4)nc4sc(CO)cc34)c2)cc(OC)c1OC
